Test results as given in ChEMBL document CHEMBL4393671, “Design of a Cyclin G Associated Kinase (GAK)/Epidermal Growth Factor Receptor (EGFR) Inhibitor Set to Interrogate the Relationship of EGFR and GAK in Chordoma” (J Med Chem, 2019).
Activity calls are given as the source filed them. The calls are words filed in the database; no cut-off is given here.

Columns and labels:
[1] = cells; assay type: functional, cell-based; conditions: Homo sapiens, 72 h
Description: Antiproliferative activity against human CH22 cells measured after 72 hrs by alamar blue assay

[2] = molecular target: T1, Cyclin-G-associated kinase (Homo sapiens) (UniProt O14976); experiment: Binding affinity to wild-type human partial length GAK (G13 to Y338 residues) expressed in bacterial expression system at 1 uM by Kinomescan method relative to control
T1 sequence (whole entry): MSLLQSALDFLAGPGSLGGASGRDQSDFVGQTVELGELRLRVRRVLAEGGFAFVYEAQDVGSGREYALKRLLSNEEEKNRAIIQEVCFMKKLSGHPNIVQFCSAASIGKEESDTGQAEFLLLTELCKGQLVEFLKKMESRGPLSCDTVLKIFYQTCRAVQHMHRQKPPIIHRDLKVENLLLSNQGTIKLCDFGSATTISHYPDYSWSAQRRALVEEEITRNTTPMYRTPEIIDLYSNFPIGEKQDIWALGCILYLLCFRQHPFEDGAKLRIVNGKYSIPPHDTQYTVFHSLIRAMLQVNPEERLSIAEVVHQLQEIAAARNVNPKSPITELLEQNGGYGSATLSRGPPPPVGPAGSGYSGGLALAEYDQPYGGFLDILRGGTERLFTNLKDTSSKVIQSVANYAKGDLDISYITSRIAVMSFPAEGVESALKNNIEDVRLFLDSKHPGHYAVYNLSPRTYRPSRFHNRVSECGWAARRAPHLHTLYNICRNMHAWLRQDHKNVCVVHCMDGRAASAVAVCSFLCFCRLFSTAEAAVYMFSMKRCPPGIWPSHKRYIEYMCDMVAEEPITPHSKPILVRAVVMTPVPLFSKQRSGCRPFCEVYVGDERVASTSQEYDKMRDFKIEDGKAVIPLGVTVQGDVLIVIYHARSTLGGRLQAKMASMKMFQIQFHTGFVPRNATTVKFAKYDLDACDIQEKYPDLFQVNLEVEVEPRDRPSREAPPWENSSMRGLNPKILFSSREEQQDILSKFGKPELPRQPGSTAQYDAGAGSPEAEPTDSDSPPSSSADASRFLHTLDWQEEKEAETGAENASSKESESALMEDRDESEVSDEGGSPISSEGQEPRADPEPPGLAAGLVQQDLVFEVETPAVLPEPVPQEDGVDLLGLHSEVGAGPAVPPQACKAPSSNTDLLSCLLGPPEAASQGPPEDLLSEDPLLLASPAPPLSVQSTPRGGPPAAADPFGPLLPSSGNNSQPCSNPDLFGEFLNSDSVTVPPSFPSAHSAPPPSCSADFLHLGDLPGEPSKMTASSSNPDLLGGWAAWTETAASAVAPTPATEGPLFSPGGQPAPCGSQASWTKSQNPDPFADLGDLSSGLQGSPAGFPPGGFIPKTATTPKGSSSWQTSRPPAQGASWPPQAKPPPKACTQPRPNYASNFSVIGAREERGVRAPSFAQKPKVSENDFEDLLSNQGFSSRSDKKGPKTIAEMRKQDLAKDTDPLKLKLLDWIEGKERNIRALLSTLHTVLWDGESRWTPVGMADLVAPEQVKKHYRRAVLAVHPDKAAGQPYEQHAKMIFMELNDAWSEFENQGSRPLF

[3] = cells; assay type: functional, cell-based; conditions: Homo sapiens, 72 h; remark: listed apart in the source
Description: Antiproliferative activity against human UCH7 cells measured after 72 hrs by alamar blue assay

[4] = molecular target: T1, Cyclin-G-associated kinase (Homo sapiens); experiment: Inhibition of tracer 5 binding to human N-terminal nano luciferase-fused GAK expressed in HEK293 cells at 5 uM measured after 2 hrs by nanoBRET assay relative to control; assay type: cell-based
[5] = cells; assay type: functional, cell-based; conditions: Homo sapiens, UCH1, 72 h
Description: Antiproliferative activity against human UCH1 cells measured after 72 hrs by alamar blue assay

[6] = cells; assay type: functional, cell-based; conditions: Homo sapiens, 72 h; remark: listed apart in the source
Description: Antiproliferative activity against human UCH14 cells measured after 72 hrs by alamar blue assay

[7] = cells; assay type: functional, cell-based; conditions: Homo sapiens, 72 h; remark: listed apart in the source
Description: Antiproliferative activity against human UCH12 cells measured after 72 hrs by alamar blue assay

[8] = cells; assay type: functional, cell-based; conditions: Homo sapiens, 72 h; remark: listed apart in the source
Description: Antiproliferative activity against human UMCHOR1 cells measured after 72 hrs by alamar blue assay

[9] = cells; assay type: ADME, cell-based; conditions: Homo sapiens, WS1, 72 h
Description: Cytotoxicity against human WS1 cells measured after 72 hrs by alamar blue assay

[10] = cells; assay type: functional, cell-based; conditions: Homo sapiens, UCH2, 72 h
Description: Antiproliferative activity against human UCH2 cells measured after 72 hrs by alamar blue assay

[11] = molecular target: T2, Epidermal growth factor receptor (Homo sapiens, UniProt P00533); assay type: cell-based;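 on IC50: human A431 cells pretreated 90 min, then EGF stimulated, sandwich ELISA measured decrease in EGF-induced receptor autophosphorylation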;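 on Kd: KINOMEscan competition binding with recombinant partial wild-type human EGFR (residues R669–V1011) produced in bacteria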
T2 sequence (P00533 whole entry, the tested form may be a part): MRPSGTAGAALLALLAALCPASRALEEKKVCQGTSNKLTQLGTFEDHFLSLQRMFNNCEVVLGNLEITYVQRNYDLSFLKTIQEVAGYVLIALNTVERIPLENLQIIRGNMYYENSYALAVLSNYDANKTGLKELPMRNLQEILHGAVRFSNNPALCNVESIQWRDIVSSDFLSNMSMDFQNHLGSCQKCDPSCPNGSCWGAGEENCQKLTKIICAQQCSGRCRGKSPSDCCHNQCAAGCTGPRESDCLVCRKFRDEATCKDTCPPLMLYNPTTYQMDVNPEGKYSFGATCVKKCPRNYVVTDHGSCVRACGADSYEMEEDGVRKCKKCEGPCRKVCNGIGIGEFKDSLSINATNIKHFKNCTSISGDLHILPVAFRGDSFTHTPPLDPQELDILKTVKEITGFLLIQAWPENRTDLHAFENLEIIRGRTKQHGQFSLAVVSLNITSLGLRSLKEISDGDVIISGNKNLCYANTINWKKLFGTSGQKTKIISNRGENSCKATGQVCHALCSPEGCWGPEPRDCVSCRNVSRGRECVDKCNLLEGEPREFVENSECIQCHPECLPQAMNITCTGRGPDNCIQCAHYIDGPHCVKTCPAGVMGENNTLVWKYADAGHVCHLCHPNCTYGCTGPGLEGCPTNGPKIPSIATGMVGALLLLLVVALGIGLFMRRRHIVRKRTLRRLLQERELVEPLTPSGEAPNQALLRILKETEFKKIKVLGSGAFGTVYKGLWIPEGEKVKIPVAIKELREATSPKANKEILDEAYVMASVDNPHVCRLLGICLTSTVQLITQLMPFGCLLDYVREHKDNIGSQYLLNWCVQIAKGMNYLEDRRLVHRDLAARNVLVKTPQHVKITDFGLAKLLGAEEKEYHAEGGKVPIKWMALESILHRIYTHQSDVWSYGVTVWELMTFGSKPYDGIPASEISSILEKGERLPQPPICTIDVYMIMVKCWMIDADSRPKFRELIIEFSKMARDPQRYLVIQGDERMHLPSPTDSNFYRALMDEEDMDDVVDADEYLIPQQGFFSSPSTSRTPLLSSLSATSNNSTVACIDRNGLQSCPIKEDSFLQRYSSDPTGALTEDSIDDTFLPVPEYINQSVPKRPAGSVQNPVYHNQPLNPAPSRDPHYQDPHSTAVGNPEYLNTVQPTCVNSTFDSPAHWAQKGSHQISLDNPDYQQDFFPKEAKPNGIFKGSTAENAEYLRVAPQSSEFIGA
Description: Inhibition of EGFR in human A431 cells assessed as reduction in EGF-stimulated EGFR autophosphorylation preincuabted for 90 mins followed by EGF-stimulation by sandwich-ELISA

[12] = molecular target: Nucleoside diphosphate kinase B (Homo sapiens) (UniProt P22392); experiment: Binding affinity to NME2 in human SUM159 cell lysates by multiplexed inhibitor bead profiling-based LC-MS/MS analysis; assay type: subcellular; conditions: Lysate
Nucleoside diphosphate kinase B (Homo sapiens), sequence (P22392 whole entry): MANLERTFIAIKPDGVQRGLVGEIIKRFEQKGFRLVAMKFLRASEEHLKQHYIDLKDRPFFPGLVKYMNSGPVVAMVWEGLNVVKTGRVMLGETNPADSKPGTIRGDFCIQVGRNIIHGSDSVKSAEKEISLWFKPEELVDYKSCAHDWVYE

[13] = molecular target: T3, Dual specificity mitogen-activated protein kinase kinase 5 (Homo sapiens) (UniProt Q13163); experiment: Binding affinity to MAP2K5 in human SUM159 cell lysates by multiplexed inhibitor bead profiling-based LC-MS/MS analysis; assay type: subcellular; conditions: Lysate
T3 sequence (whole entry): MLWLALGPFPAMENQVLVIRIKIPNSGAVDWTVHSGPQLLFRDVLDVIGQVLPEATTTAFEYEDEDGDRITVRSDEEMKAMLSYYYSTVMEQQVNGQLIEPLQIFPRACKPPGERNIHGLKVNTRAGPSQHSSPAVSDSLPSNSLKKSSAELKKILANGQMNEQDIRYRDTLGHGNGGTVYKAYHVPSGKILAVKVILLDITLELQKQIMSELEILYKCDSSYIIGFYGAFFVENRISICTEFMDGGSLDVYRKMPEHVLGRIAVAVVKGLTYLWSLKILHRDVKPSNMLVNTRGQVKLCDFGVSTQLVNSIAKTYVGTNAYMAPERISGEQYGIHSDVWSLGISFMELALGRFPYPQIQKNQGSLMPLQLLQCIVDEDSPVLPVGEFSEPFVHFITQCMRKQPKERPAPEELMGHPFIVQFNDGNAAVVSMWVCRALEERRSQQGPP

[14] = molecular target: Aurora kinase B (Homo sapiens) (UniProt Q96GD4); experiment: Binding affinity to AURKB in human SUM159 cell lysates by multiplexed inhibitor bead profiling-based LC-MS/MS analysis; assay type: subcellular; conditions: Lysate
Aurora kinase B (Homo sapiens), sequence (Q96GD4 whole entry, the tested form may be a part): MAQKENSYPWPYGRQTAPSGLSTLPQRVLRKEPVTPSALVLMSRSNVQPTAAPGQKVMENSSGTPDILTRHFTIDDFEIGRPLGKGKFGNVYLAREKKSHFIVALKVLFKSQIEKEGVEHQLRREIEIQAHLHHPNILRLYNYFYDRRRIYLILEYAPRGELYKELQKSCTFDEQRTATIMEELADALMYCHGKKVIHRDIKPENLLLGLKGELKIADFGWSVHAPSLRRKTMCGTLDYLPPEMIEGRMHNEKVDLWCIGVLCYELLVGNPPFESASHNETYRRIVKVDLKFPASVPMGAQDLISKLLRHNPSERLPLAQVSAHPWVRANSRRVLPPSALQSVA

[15] = molecular target: T4, Cyclin-G-associated kinase (Homo sapiens, UniProt O14976); experiment: Binding affinity to wild-type human partial length GAK (G13 to Y338 residues) expressed in bacterial expression system by Kinomescan method
T4 sequence (O14976 whole entry): T1 sequence (whole entry)

[16] = molecular target: T2, Epidermal growth factor receptor
Description: Binding affinity to wild-type human partial length EGFR (R669 to V1011 residues) expressed in bacterial expression system by Kinomescan method

[17] = molecular target: Serine/threonine-protein kinase SIK2 (Homo sapiens, UniProt Q9H0K1); experiment: Binding affinity to wild-type human full length SIK2 (M1 to N926 residues) expressed in bacterial expression system by Kinomescan method
[18] = species: Homo sapiens; experiment: Selectivity ratio of Kd for wild-type human partial length EGFR (R669 to V1011 residues) expressed in bacterial expression system to kd for wild-type human partial length GAK (G13 to Y338 residues) expressed in bacterial expression system
[19] = molecular target: T5, Serine/threonine-protein kinase D2 (Homo sapiens, UniProt Q9BZL6); experiment: Binding affinity to wild-type human partial length PRKD2 (A519 to E838 residues) expressed in bacterial expression system by Kinomescan method
T5 sequence (Q9BZL6 whole entry): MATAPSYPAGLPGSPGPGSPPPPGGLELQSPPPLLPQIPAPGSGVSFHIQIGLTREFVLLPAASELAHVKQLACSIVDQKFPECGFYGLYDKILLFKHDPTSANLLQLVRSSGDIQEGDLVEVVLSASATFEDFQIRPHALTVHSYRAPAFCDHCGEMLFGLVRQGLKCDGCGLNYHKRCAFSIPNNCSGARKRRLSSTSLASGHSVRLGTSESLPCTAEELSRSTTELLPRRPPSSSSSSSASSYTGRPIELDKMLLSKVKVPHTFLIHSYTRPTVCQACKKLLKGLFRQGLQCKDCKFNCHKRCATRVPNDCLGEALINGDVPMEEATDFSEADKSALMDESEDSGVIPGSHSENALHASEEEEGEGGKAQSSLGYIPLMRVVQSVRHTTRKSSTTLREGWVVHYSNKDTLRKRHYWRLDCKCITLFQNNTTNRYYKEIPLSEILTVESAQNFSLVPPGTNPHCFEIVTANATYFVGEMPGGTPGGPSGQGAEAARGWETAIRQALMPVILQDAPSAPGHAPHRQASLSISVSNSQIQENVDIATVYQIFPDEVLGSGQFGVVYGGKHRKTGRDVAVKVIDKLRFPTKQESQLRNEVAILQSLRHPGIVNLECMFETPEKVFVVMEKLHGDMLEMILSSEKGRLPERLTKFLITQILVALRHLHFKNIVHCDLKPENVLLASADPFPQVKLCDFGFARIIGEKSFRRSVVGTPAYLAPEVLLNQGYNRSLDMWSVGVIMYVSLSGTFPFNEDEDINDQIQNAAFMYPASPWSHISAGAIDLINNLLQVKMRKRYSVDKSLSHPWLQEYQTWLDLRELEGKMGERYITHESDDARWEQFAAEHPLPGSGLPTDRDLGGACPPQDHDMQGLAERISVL

[20] = molecular target: Tyrosine-protein kinase ABL2 (Homo sapiens, UniProt P42684); experiment: Binding affinity to wild-type human ABL2 (A248 to G542 residues) expressed in bacterial expression system by Kinomescan method
[21] = molecular target: Proto-oncogene tyrosine-protein kinase receptor Ret (Homo sapiens, UniProt P07949); experiment: Binding affinity to wild-type human partial length RET (E713 to D1014 residues) expressed in bacterial expression system by Kinomescan method
Proto-oncogene tyrosine-protein kinase receptor Ret, sequence (P07949 whole entry, the tested form may be a part): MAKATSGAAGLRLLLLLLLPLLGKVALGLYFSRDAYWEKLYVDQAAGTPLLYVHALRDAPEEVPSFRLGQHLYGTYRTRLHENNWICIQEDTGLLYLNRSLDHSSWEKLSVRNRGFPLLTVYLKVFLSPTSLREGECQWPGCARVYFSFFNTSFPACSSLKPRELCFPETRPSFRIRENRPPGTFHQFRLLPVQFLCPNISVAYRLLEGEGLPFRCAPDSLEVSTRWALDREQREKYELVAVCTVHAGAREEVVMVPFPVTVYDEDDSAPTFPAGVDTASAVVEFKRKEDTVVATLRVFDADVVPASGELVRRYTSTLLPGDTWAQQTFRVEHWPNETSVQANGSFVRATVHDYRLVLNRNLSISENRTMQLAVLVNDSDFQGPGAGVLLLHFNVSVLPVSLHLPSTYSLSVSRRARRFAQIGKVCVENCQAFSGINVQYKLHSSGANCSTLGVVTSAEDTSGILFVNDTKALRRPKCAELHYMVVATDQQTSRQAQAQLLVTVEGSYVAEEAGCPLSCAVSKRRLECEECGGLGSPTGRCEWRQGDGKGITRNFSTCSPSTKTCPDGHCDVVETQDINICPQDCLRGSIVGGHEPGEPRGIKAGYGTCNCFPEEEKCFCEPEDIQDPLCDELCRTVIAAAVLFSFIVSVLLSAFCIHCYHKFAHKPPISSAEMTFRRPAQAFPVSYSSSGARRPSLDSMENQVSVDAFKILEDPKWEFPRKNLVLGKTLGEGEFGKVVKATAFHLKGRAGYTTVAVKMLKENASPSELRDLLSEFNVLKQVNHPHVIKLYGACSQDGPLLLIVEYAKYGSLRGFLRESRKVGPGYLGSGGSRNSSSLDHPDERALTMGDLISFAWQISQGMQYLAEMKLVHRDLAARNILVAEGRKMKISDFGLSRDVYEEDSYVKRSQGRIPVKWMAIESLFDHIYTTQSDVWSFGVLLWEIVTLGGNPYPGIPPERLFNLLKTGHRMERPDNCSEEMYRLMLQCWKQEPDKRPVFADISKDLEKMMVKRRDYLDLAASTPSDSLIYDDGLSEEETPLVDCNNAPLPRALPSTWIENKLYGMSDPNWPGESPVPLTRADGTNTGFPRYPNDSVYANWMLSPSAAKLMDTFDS

[22] = molecular target: Tyrosine-protein kinase ABL1 (Homo sapiens, UniProt P00519); experiment: Binding affinity to wild-type human ABL1 (S229 to K512 residues) expressed in mammalian expression system by Kinomescan method
Tyrosine-protein kinase ABL1, sequence (P00519 whole entry, the tested form may be a part): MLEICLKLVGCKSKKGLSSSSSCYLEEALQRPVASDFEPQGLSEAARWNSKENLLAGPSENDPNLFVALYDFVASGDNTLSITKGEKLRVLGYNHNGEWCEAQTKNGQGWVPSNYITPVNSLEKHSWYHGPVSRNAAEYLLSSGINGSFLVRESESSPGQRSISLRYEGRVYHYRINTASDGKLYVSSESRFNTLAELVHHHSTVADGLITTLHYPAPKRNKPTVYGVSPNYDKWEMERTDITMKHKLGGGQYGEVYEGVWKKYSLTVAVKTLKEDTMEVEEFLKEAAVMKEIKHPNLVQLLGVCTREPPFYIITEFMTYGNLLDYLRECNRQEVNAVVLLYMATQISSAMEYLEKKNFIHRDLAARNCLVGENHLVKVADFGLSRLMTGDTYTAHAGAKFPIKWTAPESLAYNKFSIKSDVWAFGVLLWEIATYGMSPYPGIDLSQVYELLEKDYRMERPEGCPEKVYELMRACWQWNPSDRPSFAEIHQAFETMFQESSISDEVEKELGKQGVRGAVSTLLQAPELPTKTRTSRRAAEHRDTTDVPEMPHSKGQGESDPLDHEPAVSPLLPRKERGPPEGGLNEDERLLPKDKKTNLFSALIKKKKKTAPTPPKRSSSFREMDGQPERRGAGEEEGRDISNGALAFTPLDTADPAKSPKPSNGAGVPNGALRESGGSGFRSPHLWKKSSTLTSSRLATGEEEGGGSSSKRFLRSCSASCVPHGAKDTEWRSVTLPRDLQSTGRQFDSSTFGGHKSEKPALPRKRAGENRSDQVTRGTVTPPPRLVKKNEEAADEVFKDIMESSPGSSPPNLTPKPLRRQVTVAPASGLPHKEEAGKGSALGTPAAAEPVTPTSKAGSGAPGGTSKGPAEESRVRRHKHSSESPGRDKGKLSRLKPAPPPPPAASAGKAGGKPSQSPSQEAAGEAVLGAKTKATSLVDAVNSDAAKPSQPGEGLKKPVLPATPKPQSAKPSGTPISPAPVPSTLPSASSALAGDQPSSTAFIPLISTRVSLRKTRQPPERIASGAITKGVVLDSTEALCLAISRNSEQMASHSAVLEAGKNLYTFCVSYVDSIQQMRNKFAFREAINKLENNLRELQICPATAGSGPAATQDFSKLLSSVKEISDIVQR

[23] = molecular target: Activated CDC42 kinase 1 (Homo sapiens, UniProt Q07912); experiment: Binding affinity to wild-type human partial length TNK2 (S159 to D474 residues) expressed in bacterial expression system by Kinomescan method
Activated CDC42 kinase 1, sequence (Q07912 whole entry, the tested form may be a part): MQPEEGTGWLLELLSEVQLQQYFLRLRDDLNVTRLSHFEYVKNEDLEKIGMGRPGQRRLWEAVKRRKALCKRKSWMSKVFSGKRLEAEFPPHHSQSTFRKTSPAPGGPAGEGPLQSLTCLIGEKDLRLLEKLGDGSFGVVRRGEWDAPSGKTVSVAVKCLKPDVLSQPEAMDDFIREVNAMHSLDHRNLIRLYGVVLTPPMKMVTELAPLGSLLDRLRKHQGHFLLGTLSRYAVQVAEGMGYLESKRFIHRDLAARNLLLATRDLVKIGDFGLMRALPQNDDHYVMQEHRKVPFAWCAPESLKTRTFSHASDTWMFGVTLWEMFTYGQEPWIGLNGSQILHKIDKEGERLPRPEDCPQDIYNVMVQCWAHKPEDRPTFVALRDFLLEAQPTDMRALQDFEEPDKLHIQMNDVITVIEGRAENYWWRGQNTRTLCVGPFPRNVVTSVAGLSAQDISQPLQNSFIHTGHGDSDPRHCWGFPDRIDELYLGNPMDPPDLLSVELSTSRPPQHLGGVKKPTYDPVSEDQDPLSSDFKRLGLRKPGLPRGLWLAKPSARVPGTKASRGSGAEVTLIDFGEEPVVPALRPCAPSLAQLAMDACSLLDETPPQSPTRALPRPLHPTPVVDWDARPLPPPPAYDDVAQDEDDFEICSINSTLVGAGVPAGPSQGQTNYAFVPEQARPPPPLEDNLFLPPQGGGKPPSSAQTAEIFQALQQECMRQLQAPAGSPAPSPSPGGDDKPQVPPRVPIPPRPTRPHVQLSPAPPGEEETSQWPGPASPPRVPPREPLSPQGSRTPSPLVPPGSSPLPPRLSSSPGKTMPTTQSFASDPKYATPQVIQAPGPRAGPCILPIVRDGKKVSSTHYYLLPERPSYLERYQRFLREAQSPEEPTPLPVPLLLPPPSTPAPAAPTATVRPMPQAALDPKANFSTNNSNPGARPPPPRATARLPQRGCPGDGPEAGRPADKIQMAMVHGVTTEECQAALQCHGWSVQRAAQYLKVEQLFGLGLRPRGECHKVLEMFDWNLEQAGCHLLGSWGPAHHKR

SMILES	IC50 [1] [nM]	IC50 [3] [nM]	inhibition [4] [%]	IC50 [5] [nM]	IC50 [6] [nM]	IC50 [7] [nM]	IC50 [8] [nM]	IC50 [9] [nM]	IC50 [10] [nM]	Kd [16] [nM]	other results
CS(=O)(=O)CCNCc1ccc(-c2ccc3ncnc(Nc4ccc(OCc5cccc(F)c5)c(Cl)c4)c3c2)o1 [LAPATINIB]	25000	26000	0	3200	> 50000	33000	25000	13000	> 50000	–	Activity [2]: < 50%
COc1cc2nccc(Nc3ccc(OCc4cccc(F)c4)c(Cl)c3)c2cc1OC	1000	2700	22	2600	7000	5500	1500	8600	2900	32	IC50 [11]: 1700 nM; Activity [12]: Active; Activity [13]: Active; Activity [14]: Active; Kd [15]: > 10000 nM
COc1cccc(Nc2ncnn3ccc(CN4CC[C@@H](N)[C@H](O)C4)c23)c1 [BMS-690514]	–	–	–	530	–	–	–	–	> 50000	220	Kd [17]: < 225 nM; Selectivity ratio [18]: > 700; Kd [19]: < 225 nM; Kd [20]: < 225 nM; Kd [21]: < 225 nM; Kd [22]: < 225 nM; Kd [23]: < 225 nM
